For test [1], the system named is HUVECs. The test can be described thus: Assay to determine activity against HUVECs (carried out by Pfizer, Inc.). In kind it is cell-based, human. Conditions: for IC50: synthetic material, tested by Pfizer, Inc. The text has this:
[Aoki et al., J. Am. Chem. Soc. 2006, 128:3148-3149]

Test [2] concerns human umbilical vein endothelial cells (HUVECs). Conditions: cited from earlier work.

One may read the IC50 as the point on the concentration scale where inhibition reaches its midpoint. Compound `CN(C)[C@H]1C[C@@]23CC[C@@]4(O2)C(=CC[C@]2(C)[C@@H](c5ccc6ccncc6c5)CC[C@H]24)C=C3[C@@H](O)[C@@H]1O` [17-epi-cortistatin A] had a 50% inhibitory concentration (IC50) in test [1] of more than 1000 nM.

On to `CN(C)[C@H]1C[C@@]23CC[C@@]4(O2)C(=CC[C@]2(C)[C@@H](c5ccc6ccncc6c5)CC[C@H]24)C=C3[C@@H](O)[C@@H]1O` [cortistatin A, (+)-cortistatin A], for which the IC50 in test [1] (Homo sapiens, HUVEC) is 2.43 nM; in test [2] (natural cortistatin A tested by Kobayashi group, Aoki et al., J. Am. Chem. Soc. 2006, read-out: IC50 against HUVECs, natural cortistatin A) it was 1.8 nM. Further, in test [2] (selectivity versus healthy or cancerous cell lines, Aoki et al. 2006), the “IC50 (testing cells)/IC50 (HUVECs)” value was not below 3300.

Compound `CN(C)[C@H]1C[C@@]23CC[C@@]4(O2)C(=CC[C@]2(C)C(c5ccc6ccncc6c5)=CC[C@H]24)C=C3[C@@H](O)[C@@H]1O` [Δ^16-cortistatin A] showed an IC50 in test [1] (Homo sapiens, HUVEC) of 3.88 nM. Besides, the “biological activity compared with (+)cortistatin A” value in test [1] (statement in words, refers to the HUVEC results discussed below it) was “substantially the same as that of (+)cortistatin A”.

(Values after patent publication US8642766B2, “Synthesis of (+) cortistatin A and related compounds” (priority 2008, dated 2014).)
